From the supplement of paper PMC10307832

What was measured:
Test in all cases: relative viability (nuclei count vs DMSO), 5 days (fraction); higher = more cells survive
[1] = compound: CC1=C(C(=NN1)C)CC2=C(C3=C(S2)N(C(=O)N(C3=O)C)CC(C)C)C(=O)N4C[C@@H](CO4)O + CC1(C)CCC(c2ccc(Cl)cc2)=C(CN2CCN(c3ccc(C(=O)NS(=O)(=O)c4ccc(N[C@H](CCN5CCOCC5)CSc5ccccc5)c(S(=O)(=O)C(F)(F)F)c4)cc3)CC2)C1 [Navitoclax] (partner 0.5 µM)
In short: (§1)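 Five library-drug doses in √10 steps were combined with a fixed anchor-drug dose, or a single drug was given alone, by pin tool to lung cancer cell lines in 1536-well plates the day after seeding. Nuclei were stained and counted after 5 days. Relative viability is the nuclei count in treated wells over that in vehicle wells, taken as the median of duplicate plates.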

[2] = compound: CC1=C(C(=NN1)C)CC2=C(C3=C(S2)N(C(=O)N(C3=O)C)CC(C)C)C(=O)N4C[C@@H](CO4)O + COc1cc2c(Oc3ccc(NC(=O)C4(C(=O)Nc5ccc(F)cc5)CC4)cc3F)ccnc2cc1OCCCN1CCOCC1 [Foretinib] (partner 0.25 µM)
In short: as §1

IDH-C35 = compound: Cc1ccccc1C(C(=O)NC1CCCCC1)N(C(=O)Cn1ccnc1C)c1cccc(F)c1 [IDH-C35]
In short: (§2)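 Five library-drug doses spaced by √10 were pinned onto vehicle-anchored 1536-well plates of lung cancer cell lines that had been kept overnight at 37 °C. Cells went 5 days without medium change, then were fixed, permeabilised and Hoechst-stained together, imaged at 4× and counted by MetaXpress. Viability is the ratio of treated-well to vehicle-well nuclei, taken as a median over plates. Plates required control CV below 25% and at least one doubling.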

[3] = compound: CC1=C(C(=NN1)C)CC2=C(C3=C(S2)N(C(=O)N(C3=O)C)CC(C)C)C(=O)N4C[C@@H](CO4)O
In short: as §2

Cell Line | relative viability ([1]; first compound 0.0025 µM) | relative viability ([1]; first compound 0.007906 µM) | relative viability ([1]; first compound 0.025 µM) | relative viability ([1]; first compound 0.07906 µM) | relative viability ([1]; first compound 0.25 µM) | relative viability ([2]; first compound 0.0025 µM) | relative viability ([2]; first compound 0.007906 µM) | relative viability ([2]; first compound 0.025 µM) | relative viability ([2]; first compound 0.07906 µM) | relative viability ([2]; first compound 0.25 µM) | relative viability (IDH-C35; 0.08 µM) | relative viability (IDH-C35; 0.253 µM) | relative viability (IDH-C35; 0.8 µM) | relative viability (IDH-C35; 2.53 µM) | relative viability (IDH-C35; 8 µM) | relative viability ([3]; 0.0025 µM) | relative viability ([3]; 0.007906 µM) | relative viability ([3]; 0.025 µM) | relative viability ([3]; 0.07906 µM) | relative viability ([3]; 0.25 µM)
NCI-H1944 | 1.03 | 1.04 | 1.08 | 1.08 | 1.02 | 0.985 | 1.02 | 0.898 | 1.02 | 0.889 | 1.01 | 1.07 | 0.927 | 0.941 | 0.976 | 1.04 | 1.1 | 0.982 | 0.933 | 0.944
EPLC-272H | 1.17 | 1.26 | 1.07 | 1.08 | 1.28 | 0.73 | 0.618 | 0.765 | 0.657 | 0.643 | 0.935 | 1.04 | 0.898 | 0.76 | 0.882 | 1.02 | 0.906 | 0.968 | 0.974 | 1.01
EBC-1 | 0.473 | 0.426 | 0.485 | 0.498 | 0.494 | 0.117 | 0.107 | 0.12 | 0.107 | 0.103 | 1.05 | 1.01 | 0.992 | 0.981 | 0.96 | 1.01 | 1.07 | 0.868 | 1.08 | 1.05
NCI-H1915 | 0.81 | 0.789 | 0.763 | 0.79 | 0.832 | 1.18 | 1.12 | 1.05 | 1.01 | 1.11 | 0.993 | 0.975 | 1.01 | 0.952 | 0.913 | 1.04 | 1.03 | 0.993 | 0.991 | 1.03
NCI-H596 | 1.06 | 1.16 | 0.931 | 1.01 | 1.16 | 1.08 | 1.12 | 0.691 | 0.702 | 0.99 | 0.884 | 0.938 | 0.972 | 0.925 | 1.01 | 1.09 | 1.13 | 0.978 | 1.04 | 1.11
NCI-H322M | 1.22 | 1.18 | 1.18 | 1.29 | 1.06 | 1.07 | 0.969 | 1.04 | 0.977 | 0.98 | 0.92 | 0.973 | 0.933 | 0.963 | 1 | 0.98 | 1.02 | 0.948 | 1.02 | 0.919
NCI-H1299 | 1.08 | 1.04 | 1.08 | 1.05 | 0.987 | 1.06 | 1.11 | 1.06 | 1.1 | 1.09 | 1.04 | 0.952 | 1.01 | 0.991 | 1.01 | 1.01 | 1 | 0.952 | 1.01 | 1.03
NCI-H2228 | 0.955 | 0.961 | 1.15 | 1 | 1.14 | 0.828 | 1.04 | 0.734 | 0.83 | 1.08 | 0.87 | 0.935 | 0.968 | 1.01 | 0.935 | 0.925 | 1.24 | 1.13 | 0.907 | 1.08
IA-LM | 0.738 | 0.796 | 0.912 | 0.784 | 0.722 | 1.25 | 1.01 | 1.2 | 1.25 | 1.14 | 0.947 | 1.02 | 0.858 | 0.887 | 0.999 | 0.945 | 0.998 | 0.96 | 1.02 | 1.07
NCI-H647 | 1.15 | 1.43 | 1.01 | 1.32 | 1.42 | 1.23 | 1.27 | 1.13 | 1.19 | 1.2 | 1.03 | 0.94 | 0.972 | 0.936 | 0.949 | 1.03 | 1.1 | 0.932 | 0.915 | 0.934
SK-MES-1 | 1.3 | 1.42 | 1.12 | 1.28 | 1.33 | 0.901 | 1.06 | 1.02 | 0.954 | 0.991 | 0.983 | 0.984 | 0.985 | 1.02 | 0.986 | 1.03 | 1.07 | 1.02 | 1.07 | 1.06
NCI-H2170 | 0.613 | 0.747 | 0.556 | 0.612 | 0.543 | 0.989 | 1.09 | 0.984 | 0.972 | 1.08 | 0.971 | 0.948 | 1.02 | 0.867 | 0.983 | 0.973 | 1.02 | 0.966 | 0.906 | 0.965
NCI-H2085 | 1.22 | 1.12 | 1.06 | 1.12 | 1.22 | 0.965 | 0.803 | 0.957 | 0.796 | 0.827 | 1.01 | 1 | 0.957 | 1.09 | 0.969 | 0.992 | 0.954 | 0.939 | 0.981 | 0.793
SW 1573 | 0.978 | 1.1 | 0.927 | 0.929 | 1.12 | 0.958 | 1.05 | 0.86 | 0.74 | 0.964 | 1.1 | 1.12 | 0.951 | 0.875 | 0.898 | 1.02 | 1.09 | 0.975 | 0.957 | 1.05
NCI-H727 | 0.44 | 0.36 | 0.344 | 0.364 | 0.439 | 1.15 | 1.13 | 0.882 | 0.876 | 0.897 | 0.81 | 0.98 | 1.01 | 0.979 | 1.01 | 1.07 | 1 | 1 | 0.875 | 0.964
